Reference: US20130158070A1, “CONJUGATES OF POLYUNSATURATED FATTY ACIDS AND AMINE-CONTAINING COMPOUNDS AND USES THEREOF” (priority 2010, published 2013)

Tests used:
[1] = Pharmacokinetic profile after oral administration in rats; assay type: in vivo, Sprague-Dawley male rats
Protocol: Evaluation of the pharmacokinetic profile of MWL001 after oral administration in rats was performed.
Sprague-Dawley male rats weighing 300-325 g were used to evaluate the oral absorption of MWL001 and its blood levels. They were deprived of food overnight and given free access to water. A dose of 10 mg/kg MWL-001 (3.3 mg/rat) was dispersed in 2.5 mL DDW and delivered to the rats by oral gavage. Blood samples (300 μl) from the rats' tails were collected in heparin containing tubes at 0, 0.5, 1, 1.5, 2, 3, 4, 6, 8, 12 and 24 h. The samples were immediately centrifuged at 10,000 rpm for 5 min, after which 150 μl of plasma samples were transferred to new tubes and stored at −80° C. until analyzed by LCMS/MS.
The assay was based on protein precipitation of MWL001 and DHA (as an MWL001 metabolite) using methanol (100 μL plasma sample mixed with […] of methanol. The separation was carried out under reverse-phase conditions employing a Phenomenex Synergi, column (MAX-RP, 50×2 mm, 2.5 μm, 100A (in gradient mode. The mobile phase A was methanol/water/formic acid 20/80/0.2 and the mobile phase B was methanol/water/formic acid 80/20/0.2. The flow rate was maintained at 0.3 mL/min, and the column was maintained at 40° C. HPLC-MS/MS analysis was performed with a Shimadzu LC-20 HPLC system coupled with a Sciex Qtrap 3200 Turbo Ion Spray detector in positive ionization mode. The tested samples were quantified against a calibration curve in the range of 5-50 ng/mL.

[2] = tested on: oxazolone-induced allergic dermatitis; test: Murine oxazolone-induced allergic dermatitis; assay type: in vivo, mice
Description: An allergic form of contact dermatitis can be induced in mice by repeated epicutaneous application of the chemical sensitizer oxazolone. This leads to local augmented thickness and weight increase of the skin area where the rechallenge was applied; from the histological point of view, oxazolone-induced dermatitis is characterized by severe mononuclear cell infiltration of the dermis with in situ production of the type 1 proinflammatory cytokines TNF-alpha, IL-1alpha and IFN-gamma. These well-defined mechanistic pathways of inflammatory skin damage make oxazolone-dermatitis a useful in vivo tool for pathogenic studies and a pharmacodynamic parameter to screen drugs of potential utility in counteracting type 1 cytokine dependent cutaneous immunoinflammatory responses such as those found in some forms of bullous disorders, cutaneous vasculitis and psoriasis.
The efficacy of MWL001 in the treatment of Murine oxazolone-induced allergic dermatitis was evaluated. MWL001 and DEX were administered one hour after the second challenge with oxazolone.
The mice were sensitized on day 0 by a single application of 10 ∞l of 2% oxazolone (Sigma Chimica, Milan, Italy) in ethanol to the inner and outer surface of the left ear. The disease was elicited by local rechallenge on day 7 with 15% oxazolone. The right ear was treated with the vehicle of oxazolone (acetone). Eighteen hours after […] the mice are sacrificed under ether anesthesia and both the right and left ears were excised.
Inflammation was assessed as the percentage increase in ear thickness and/or ear weight in the treated left ear vs. the vehicle-treated right ear. Ear thickness was measured with a digital calliper. The extent of the inflammation was quantified as follows: ear swelling (%)=100×(a−b)/b, where a is thickness/weight of the left (treated) ear and b is the thickness/weight of the right (untreated) ear.
Ear tissue samples were fixed with 4% formaldehyde in phosphate-buffered saline (PBS) and embedded in paraffin. Thereafter, 6-μm sections were deparaffinized with xylene, stained with hematoxylin-eosin and observed with a Zeiss microscope (Jena, Germany).

[3] = tested on: collagen induced arthritis; test: Collagen induced arthritis (CIA), arthritis score, paw thickness, body weight; assay type: in vivo, DBA/1J mice
Protocol: In a different study, 34 male 8-10 weeks old DBA/1J mice were used. Animals were fed ad libitum a commercial rodent diet (Teklad Certified Global 18% Protein Diet cat #: 106S8216). Animals had free access to acidified drinking water (pH between 2.5 and 3.0) obtained from the municipality supply.
The effect of MWL-002 (conjugate of DHA and taurine) was tested and compared to that of Ibuprofen. Cremophore EL was used as a vehicle.
On day 0, each mouse was anesthetized by inhalation of 3% isofluorane and injected intradermally at the base of the tail with 0.1 ml of emulsion containing 100 μg collagen, using a 1-ml glass syringe with a 26-guade needle. Booster injection was performed at day 15 to the same injection site.
The tested materials were administered 3 times a week, via IP for a total of 12 administrations starting on day 1.
Observations for clinical score were performed twice weekly until study termination.
The severity of arthritis was scored based on the level of inflammation in each of the four paws and recorded as one of five grades according to the following:
Hind paw thickness (edema) was measured by digital caliper once a week until Day 14 and thereafter twice weekly and prior to study termination. Two cross sectional areas were marked, one on the paw and the other at the ankle (tarsal joint). Two measurements were made on each section, perpendicular to each other. The results obtained were calculated as the average areas of both hind limbs per animal.
Body weight was measured prior to dosing, during the study twice a week and prior to study termination.

[4] = Acute intraperitoneal (IP) toxicity in the mouse; details: both sexes, in vivo, single IP injection, male and female ICR mice, read-out: MTD (Maximum Tolerated Dose)
Protocol: The objective of this study was to determine the MTD (Maximum Tolerated Dose) and/or assess the potential toxic effects in terms of the MFD (Maximum Feasible Dose) following an acute intraperitoneal (IP) injection of the Test Item MWL002 (Batch No.: 201109) to male and female ICR mice, in consideration of its intended use as an anti-inflammatory and pain relief agent.
MWL002 (Batch No.: 201109) was injected at two dose levels of 1000 (corresponding to the MFD) and 200 mg/kg to two groups consisting of three male and three female ICR mice per group, by a single intraperitoneal (IP) injection. An additional equally-sized group was injected with vehicle and served as the Control group. Dosing was sequential using three male and three female mice per step at 14 days interval. The Test Item or Vehicle Control Dosing Solutions were freshly prepared by the Testing Facility on each day of dosing, by diluting the Test Item or Vehicle Control with Physiological Saline according to the appropriate dose level and a constant volume dosage of 4 ml/kg.

[5] = male, Sprague-Dawley, rat, 10 mg/kg oral gavage, plasma
[6] = eighteen hours after sensitization, given one hour after second oxazolone challenge

Compound	Cl (Clearence) ([1]; 10 mg/kg oral gavage, plasma)	V (Volume of distribution) ([1]; 10 mg/kg oral gavage, plasma)	oral absorption / bioavailability ([1]; 10 mg/kg oral, FIG. 9)	AUC [1, 5]	Cmax [1, 5]	Tmax [1, 5]	half-life ([1]; male, Sprague-Dawley, rat, 10 mg/kg oral gavage, plasma, read-out: T½ (converted))	metabolism (major metabolite) ([1]; oral, plasma, FIG. 9)	ear thickness [2, 6]	ear weight [2, 6]	histology: ear thickness and inflammatory cells in epidermis and dermis ([2]; hematoxylin and eosin stained sections)	day from which arthritis score (AS) increases ([3]; 50 mg/kg IP, 3 times a week, 12 administrations)	CIA development ([3]; 50 mg/kg IP, overall conclusion)	body weight ([3]; 50 mg/kg IP, from day 37, in comparison to the other 3 groups)	arthritis thickness index (ATI) increase ([3]; from day 0 to day 70, 50 mg/kg IP, groups 1M DHA-Tau, 2M DHA, 4M Ibuprofen)	ATI course ([3]; from day 43 until end of study, FIG. 8B)	MTD [4]
CCC=CCC=CCC=CCC=CCC=CCC=CCCC(=O)N1CC(O)CC1C(=O)O (centres unmarked) [MWL001]	1512.7 ± 189.1 mL/h/kg	11283.0 ± 3583.1	high bioavailability	6690 ± 838 ng·h/mL	1040 ± 77.5 ng/mL	2.3 ± 0.5 h	294 ± 36 min	undergoes decomposition to DHA	decreased ear thickness	decreased ear weight	markedly reduced						
CC/C=C\C/C=C\C/C=C\C/C=C\C/C=C\C/C=C\CCC(=O)NCCS(=O)(=O)O [MWL002, N-docosa-4,7,10,13,16,19-hexaenoyl-taurine]												57 days	inhibits CIA development robustly	increase the body weight in a major percent	150%	almost no changes	200 to 1000 mg/kg
